Consider one compound from patent US11957735B2, “Releasable GLP-1 conjugates” (QuiaPEG Pharmaceuticals AB, priority 2018, dated 2024).

A short description of this data set: pH-triggered hydrolysis (T1/2) in TRIS buffer at 37° C., HPLC with AZT internal reference. It is filed as physicochemical. Conditions: pH 8, hydrolysis of aminouridine carbamate, process of Example 1. As to the method:
In the following experiment, the T1/2 at pH 8 is calculated to be approx. 11 h, which translates to 44 h at pH 7.4 (factor 4×). ˜1 mg conjugate was dissolved in a volume of 20% MeCN in water. An appropriate amount of azidothymidine (AZT) was added as an internal reference and the hydrolysis was started by addition of a volume of 0.3 M TRIS buffer solution at pH 8.0. The reaction mixture was then kept at 37° C. 30 μL aliquots were taken at each time point and acidified by addition of 20 μL 1 M AcOH before injection to HPLC.

In turn, `O=C(NC1C(O)[C@@H](CO)O[C@H]1n1ccc(=O)[nH]c1=O)OCC(c1ccccc1)c1ccccc1` (stereo partly shown) [compound 1] showed a half-life of 12 days.
